Test results: patent US20050090506A1, “Insecticidal perfluoroalkylthiazole derivatives” (Nippon Soda Co., Ltd., priority 2003, published 2005)

**Q.** Which melting point does the source give for `O=C(Nc1nc(C(F)(F)C(F)(F)F)c(CCl)s1)c1cc(C(F)(F)F)cc(C(F)(F)F)c1` [Compound 47, N-(5-chloromethyl-4-pentafluoroethylthiazol-2-yl)-3,5-bis-trifluoromethylbenzamide] here?
**A.** The melting point was 133 to 134 °C.

**Q.** With `CCOC(=O)c1sc(NC(=O)c2ccc(C)cc2)nc1C(F)(F)C(F)(F)F` [Compound 2, N-(5-Ethoxycarbonyl-4-pentafluoroethylthiazol-2-yl)-4-methylbenzamide] as the compound, how does the melting point read?
**A.** The melting point was 202 to 203 °C.

**Q.** Which melting point does the source give for `CCOC(=O)c1sc(NC(=O)c2cc(C(F)(F)F)cc(C(F)(F)F)c2)nc1C(F)(F)C(F)(F)F` [Compound 68, N-(5-Ethoxycarbonyl-4-pentafluoroethylthiazol-2-yl)-3,5-bis-trifluoromethylbenzamide] here?
**A.** Its melting point is 154 to 155 °C.
